The record followed here is patent US20140155321A1, “Polypeptides and Their Use” (Novabiotics Limited, priority 2012, published 2014).

Where two headings read alike, the source gives them in different places. Where only a bound is given, the exact number is not on record here.

Series [1] concerns M. furfur DSMZ6170. Briefly: Antifungal efficacy in conditioner vehicles, surviving colony count. The class given is cell-based, Malassezia furfur. The note with it: for killing of M. furfur: 60 min exposure. On the procedure:
The antifungal efficacy of NP108 was tested in a conditioner vehicle. The following materials were tested: • 1. 10% (v/v) Head & Shoulders conditioner (anti-dandruff conditioner) • 2. 10% (v/v) Pantene conditioner (“normal” conditioner) • 3. 10% (v/v) Pantene conditioner (“normal” conditioner)+4% (w/v) NP 108 • 4. Phosphate Buffered Saline (PBS)
All yeast inocula for this experiment were prepared to the 0.5 McFarland Standard. 400 μl of yeast inoculum was exposed to 100 μl of the materials described above for 1 h at 37° C., followed by washing to remove all traces of the materials. Serial dilutions of the yeasts were prepared (10^0-10^−5; 10-fold dilutions) and 100 μl was spread on Modified Christensen's Medium and incubated at 30° C. for 48 h and numbers of surviving colonies counted. All experiments were carried out in triplicate.
(§1) In a further experiment, the effect of incubation time on killing of Malassezia spp. was investigated. The following materials were tested: • 1. 0.04% (w/v) Zinc Pyrithione in 19.2% (v/v) Head &Shoulders conditioner • 2. 1.0% (w/v) NP108 in 19.2% (v/v) Head & Shoulders conditioner • 3. 19.2% (v/v) Head & Shoulders conditioner
(§2) All yeast inocula for this experiment were prepared to the 0.5 McFarland Standard. […] of yeast inoculum was exposed to 100 μl of the materials described above and incubated at 30° C. for 0, 3, 10, 30 or 60 min, followed by washing to remove all traces of the materials. Serial dilutions of the yeasts were prepared (10^0-10^−5; 10-fold dilutions) and 100 μl was spread on Modified Christensen's Medium and incubated at 30° C. for 48 h and numbers of surviving colonies counted. All experiments were carried out in triplicate.
In the following experiment, all samples of M. furfur DSMZ6170 (0.5 McFarland Standard) were exposed to 10% (v/v) H & S Conditioner, containing 10.0 (1.0%) mg/ml NP108 or 0.4 mg/ml zinc pyrithione (the active ingredient in H & S shampoo). The control samples were exposed to 10% (v/v) H & S Conditioner. The negative control samples were exposed to water alone (data not shown).
In the following experiment, all samples of M. furfur DSMZ6170 (0.5 McFarland Standard) were exposed to 10% (v/v) H & S Conditioner or 10% (v/v) Pantene Conditioner and a further treatment of 40 mg/ml NP108 (4.0%) in 10% (v/v) Pantene Conditioner. The control sample was exposed to PBS alone. All incubations were carried out for 60 min.

Series [2] relates to M. furfur DSMZ6170. The note with it: 0.4 mg/ml zinc pyrithione, under in vitro conditions (not in conditioner).
In series [3] the test system is Malassezia pachydermatis (CBS6536). The note with it: for positive skin cultures / approximate number of cfu from skin biopsies, Group ave.: 10 d post-infection, 5% (w/v) NP108 or 2% (w/v) miconazole topical; for approximate number of cfu from skin biopsies, Group ave.: 3 days incubation; for Group ave. Day+10 clinical score: topical once a day for 6 d from 48 h post-infection, 5% (w/v) NP108 or 2% (w/v) miconazole, score 3.0 = significant crusting/erythema. As for the experimental part: Determination of the Efficacy of NP108 Against Malassezia pachydermatis (CBS6536) in a Murine Model of Localised Dermatophyte Skin Infection (10 Days Post-Infection)
In this Malassezia spp. skin infection study, 30 male CD1 mice (10 per treatment group) were scored daily for 10 d post-infection based on the clinical observations of the infected area. Mice were treated with test article, 5% (w/v) NP108, 2% (w/v) miconazole or vehicle commencing 48 h post-infection for 6 d. Groups of 10 mice were euthanized for culture of skin tissue 10 d post-infection. Skin samples were dissected into 10 pieces per mouse and each piece streaked onto Modified Leeming Notman agar (MLNA) for culture at 30° C. for up to 7 d. Data from these samples has been recorded as number positive for Malassezia pachydermatis CBS6536 growth per mouse and approximate number of quantifiable cfu per streaked sample; plates were read after 3 d and 7 d incubation. Test article NP108 was supplied as a 5% (w/v) dosing preparation in 65% PEG14000, supplied ready to administer without any reconstitution or dilution required, as was vehicle preparation also.

Series [4] concerns human dermal fibroblast (BJ) cells. Kind of series: Cytotoxicity versus human dermal fibroblast (BJ) cells. The format is cell-based. The note with it: BJ fibroblasts. As for the experimental part:
(§3) Haematotoxicity versus 10% human red blood cells and cyctotoxicity versus human dermal fibroblast (BJ) cells and human lung epithelial (A549) cells was determined by standard in vitro procedures known to those skilled in the art (Table 1 and FIG. 1).

Series [5] deals with M. pachydermatis CBS6536. Briefly: MIC by modified CLSI M27-A3 broth dilution versus M. pachydermatis CBS6536. The format is cell-based, Malassezia pachydermatis. On the procedure: (§4) The minimum inhibitory concentration (MIC) of all materials was determined according to methods described in the Clinical and laboratory Standards institute Approved Standard “Reference Method for Broth Dilution Antifungal Susceptibility Testing of Yeasts—Third Edition (M27-A3)” with the following modifications. In place of RPMI-1640 liquid medium, Modified Christensen's Medium, without the addition of agar, was used.

Series [6] has as its system M. furfur DSMZ6170. Kind of series: MIC by modified CLSI M27-A3 broth dilution versus M. furfur DSMZ6170. The class given is cell-based, Malassezia furfur. On the procedure:
as §4

Series [7] concerns M. pachydermatis NCPF3667. Kind of series: MIC by modified CLSI M27-A3 broth dilution versus M. pachydermatis NCPF3667. The format is cell-based, Malassezia pachydermatis. The note with it: Table 2. As for the experimental part: as §4
A further series has as its system human red blood cells. Kind of series: Haematotoxicity (haemolysis) versus 10% human red blood cells. The format is cell-based. As for the experimental part:
as §3

Series [8] concerns M. furfur DSMZ6170. Briefly: Antifungal efficacy in a shampoo vehicle, surviving colony count. The format is cell-based, Malassezia furfur. The note with it: 40 mg/ml NP108 in 10% (v/v) Pantene shampoo; 60 min exposure; FIG. 5. As for the experimental part:
The antifungal efficacy of NP108 was tested in a shampoo vehicle. The following materials were tested: • 1. 10% (v/v) Head & Shoulders shampoo (anti-dandruff shampoo) • 2. 10% (v/v) Pantene shampoo (“normal” shampoo) • 3. 10% (v/v) Pantene shampoo (“normal” shampoo)+4% (w/v) NP108 • 4. Phosphate Buffered Saline (PBS)
All yeast inocula for this experiment were prepared to the 0.5 McFarland Standard. 400 μl of yeast inoculum was exposed to 100 μl of the materials described above for 1 h at 37° C., followed by washing to remove all traces of the materials. Serial dilutions of the yeast inocula were prepared (10^0-10^−5; 10-fold dilutions) and 100 μl was spread on Modified Christensen's Medium and incubated at 30° C. for 48 h and numbers of surviving colonies counted. All experiments were carried out in triplicate.
In the following experiment, all samples of M. furfur DSMZ6170 (0.5 McFarland Standard) were exposed to 10% (v/v) Head & Shoulders (H & S) Shampoo, 10% (v/v) Pantene Shampoo and 10% (v/v) Pantene Shampoo containing 40.0 (4.0%) mg/ml NP108. The negative control samples were exposed to phosphate-buffered saline (PBS) alone. H & S Shampoo contains zinc pyrithione (˜1%) as an antifungal agent proven to kill Malassezia spp.

Series [9] has as its system M. pachydermatis CBS6536. Briefly: Antifungal efficacy in Head & Shoulders conditioner, surviving colony count. The class given is cell-based, Malassezia pachydermatis. The note with it: FIG. 6. As for the experimental part:
as §1, §2
In the following experiment, all samples of M. pachydermatis CBS6536 (0.5 McFarland Standard) were exposed to 10% (v/v) Head & Shoulders (H & S) Conditioner, containing 0 (0%), 1.0 (0.1%) or 10.0 (1.0%) mg/ml NP108. The positive control samples were exposed to 10% (v/v) Head & Shoulders Conditioner. The negative control samples were exposed to water alone.

The mark [10] stands for this setting: Table 1, 1×10^6-5×10^6 cells/ml, Modified Christensen's Medium.
[11] abbreviates: Table 2, M. pachydermatis CBS6536.

Regarding zinc pyrithione [reference compound], in the series on M. furfur DSMZ6170 [1] (0.4 mg/ml zinc pyrithione in H & S conditioner, FIG. 7), the antifungal activity entry is given as “no antifungal activity”. For the same compound, the “killing of M. furfur” value in the series with M. furfur DSMZ6170 [2] was “sufficient to kill”.

On to `Clc1ccc(COC(Cn2ccnc2)c2ccc(Cl)cc2Cl)c(Cl)c1` (centres unmarked) [miconazole, reference compound], for which, in series [3], the positive skin cultures was 100%; the “approximate number of cfu from skin biopsies, Group ave.” value is 131.4 cfu/mouse; the “Group ave. Day+10 clinical score” value is 1.31.

Regarding Poly-L-Lysine [NP108], the “killing of M. furfur” value in the series on M. furfur DSMZ6170 [1] (10 mg/ml NP108 (1.0%) in H & S conditioner, FIG. 7) is on record as “Complete killing”. Also, the antifungal activity entry in the series with M. furfur DSMZ6170 [1] (10 mg/ml NP108 (1.0%) in H & S conditioner, after as little as 3 min exposure, time-dependent increase, FIG. 7) is on record as “demonstrates antifungal activity”. The “killing of M. furfur” value with M. furfur DSMZ6170 [1] (40 mg/ml NP108 (4.0%) in 10% (v/v) Pantene conditioner, FIG. 8) was “completely killing”. In series [4], the “Cytotoxicity (BJ; LD50)” value is 4,500 μg/ml. Further, in the series with M. pachydermatis CBS6536 [5] (setting [10]), the MIC50 is 62.5 to 125 µg/mL, the MIC80 was 62.5 to 125 µg/mL and the MIC100 is 125 µg/mL. Further, in the series on M. pachydermatis CBS6536 [5] (setting [11]), the “MIC50 Median” value is 31.25 µg/mL, the “MIC80 Median” value came to 62.5 µg/mL, the “MIC80 Range” value is 31.25 to 125 µg/mL and the “MIC100 Median” value was 62.5 µg/mL. Further, in the series with M. pachydermatis CBS6536 [5] (setting [11]), the “MIC100 Range” value was 31.25 to 125 µg/mL. In the series with M. pachydermatis CBS6536 [5] (Table 2, M. pachydermatis CBS6536, three independent experiments), the “MIC50 Range” value was 15.63 to 31.25 µg/mL. In addition, the tolerability of treatment entry in [3] (5% (w/v) NP108 in 65% PEG14000, topical, throughout the study) is reported as “well tolerated”. In series [3], the positive skin cultures worked out at 84%; the “approximate number of cfu from skin biopsies, Group ave.” value is 34.6 cfu/mouse; the “Group ave. Day+10 clinical score” value came to 0.65. Moreover, in the series with M. furfur DSMZ6170 [6] (Table 2), the “MIC50 Median” value was determined as 250 µg/mL, the “MIC80 Median” value stood at 1000 µg/mL, the “MIC80 Range” value is 500 to 2000 µg/mL and the “MIC100 Median” value stood at 2000 µg/mL. Further, the “MIC100 Range” value in the series on M. furfur DSMZ6170 [6] (Table 2) lay within 2000 to 4000 µg/mL. In addition, in the series on M. furfur DSMZ6170 [6] (Table 2, three independent experiments), the “MIC50 Range” value is 125 to 500 µg/mL. Besides, in series [7], the “MIC50 Median” value is 15.6 µg/mL, the “MIC80 Median” value lay within 15.6 to 31.3 µg/mL and the “MIC100 Median” value amounted to 31.3 µg/mL. In addition, the “Haemolysis (LD50)” value with human red blood cells is >10,000 μg/ml. For the same compound, the “killing of M. furfur (surviving cfu/ml)” value in the series on M. furfur DSMZ6170 [8] was “kills”. The antifungal activity entry in the series on M. pachydermatis CBS6536 [9] (1 mg/ml NP108 (0.1%) in H & S conditioner) is recorded as “no antifungal activity”. For the same compound, in the series on M. pachydermatis CBS6536 [9] (10 mg/ml NP108 (1.0%) in H & S conditioner, after as little as 3 min exposure), the “killing of M. pachydermatis” value is “kills”.
